Patent US20260242416A1, “ANTIMICROBIAL PEPTIDES” (priority 2023, published 2026)
Read-outs that look alike come from different tables or passages of the source. Where a SMILES comes first, the peptide text is derived from it.

Legend:
[1] = tested on: E. coli ATCC 25922; assay type: cell-based, Escherichia coli
Method: (§1) Bacteria were grown overnight at 37° C. in Mueller-Hinton Broth (MHB; Sigma-Aldrich, St. Louis. MO, USA) in a shaking incubator and aliquoted into cryovials with a 50% glycerol solution in a 1:1 ratio. No additives were added to the MHB during the growth of bacterial isolates. Glycerol stocks were stored at −80° C.
(§2) The antimicrobial activity of the putative AMPs was determined by a broth microdilution assay as described by the Clinical and Laboratory Standards Institute, with the published adaptations for testing of cationic peptides. Escherichia coli 25922 and Staphylococcus aureus 29213 isolates were purchased from the American Type Culture Collection (ATCC; Manassas, VA, USA). A human clinical isolate of Salmonella enterica serovar Enteritidis was provided by the BC Centre for Disease Control. Bacteria from stocks stored at −80° C. were streaked onto nonselective Columbia blood agar with 5% sheep blood (Oxoid) and incubated overnight at 37° C. Next, 2-4 colonies were streaked onto a new agar plate to ensure uniform health of colonies used in the broth microdilution assay. Isolated colonies were suspended in MHB and the optical density was measured with a spectrophotometer to create an initial inoculum concentration of approximately 1×10^8 cfu/mL. The inoculum was diluted 1:250 to a final concentration of 2-8×10^5 cfu/mL, which was confirmed by performing a Total Viability Count (TVC). The TVC consisted of plating a 1:1000 dilution of the final inoculum on nonselective media and was also used to confirm the health and purity of the inoculum in each trial.
(§3) Lyophilized 80 μg peptide aliquots synthesized by GenScript (Piscataway, NJ, USA) were resuspended to 1.28 mg/mL with UltraPure water (Thermo Fisher Scientific, Waltham, MA, USA) and serially diluted in polypropylene 96-well microtiter plates (Greiner Bio-One #650261, Kremsmunster, Austria) from 128 down to 0.5 μg/mL. Two columns per plate were reserved for growth and sterility controls. Inoculum was added to the wells containing the peptide and the growth control. Plates were incubated for 20-24 h at 37° C. The minimum inhibitory concentration (MIC) was determined as the lowest peptide concentration where there was no visible bacterial growth.

[2] = tested on: S. aureus ATCC 29213; assay type: cell-based, Staphylococcus aureus
Method: as §1, §2, §3

[3] = tested on: Salmonella enterica serovar Enteritidis (human clinical isolate); assay type: cell-based
Method: as §1, §2, §3

[4] = serovar Enteritidis (human clinical isolate)

CC[C@H](C)[C@H](N)C(=O)N[C@H](C(=O)N[C@@H](CCC(=O)O)C(=O)N1CCC[C@H]1C(=O)N[C@H](C(=O)NCC(=O)N[C@H](C(=O)N[C@@H](CCCCN)C(=O)N[C@@H](C)C(=O)N1CCC[C@H]1C(=O)N[C@H](C(=O)N[C@@H](Cc1ccccc1)C(=O)N[C@H](C(=O)N[C@@H](CO)C(=O)N[C@@H](CCC(=O)O)C(=O)N[C@@H](CC(C)C)C(=O)N[C@@H](CCCNC(=N)N)C(=O)NCC(=O)NCC(=O)N[C@@H](Cc1c[nH]c2ccccc12)C(=O)N[C@@H](CC(C)C)C(=O)N[C@@H](CCCCN)C(=O)N[C@@H](CCCCN)C(=O)N[C@@H](CCCNC(=N)N)C(=O)O)[C@@H](C)O)[C@@H](C)O)[C@@H](C)O)C(C)C)[C@@H](C)O [PaVa3] (H-ITEPVGTKAPTFTSELRGGWLKKR-OH; N-terminus and C-terminus assumed)
>128/>128/>128 ug/mL: MIC (ug/mL) E. coli ([1]; ATCC 25922) | MIC (ug/mL) S. aureus ([2]; ATCC 29213) | MIC (ug/mL) S. Enteritidis [3, 4]

CC(C)C[C@H](NC(=O)[C@H](C)NC(=O)[C@@H](N)Cc1c[nH]c2ccccc12)C(=O)N[C@@H](CCCNC(=N)N)C(=O)N[C@@H](Cc1c[nH]c2ccccc12)C(=O)N[C@@H](CCCCN)C(=O)N[C@H](C(=O)N[C@@H](CCCNC(=N)N)C(=O)O)[C@@H](C)O [PaVi1, WALRWKTR] (H-WALRWKTR-OH; N-terminus and C-terminus assumed)
>128/>128/>128 ug/mL: MIC (ug/mL) E. coli ([1]; ATCC 25922) | MIC (ug/mL) S. aureus ([2]; ATCC 29213) | MIC (ug/mL) S. Enteritidis [3, 4]

C[C@H](NC(=O)CNC(=O)[C@H](CCCNC(=N)N)NC(=O)[C@H](CCC(=O)O)NC(=O)[C@H](CCC(=O)O)NC(=O)[C@@H](N)CCCCN)C(=O)N1CCC[C@H]1C(=O)N[C@@H](CCCCN)C(=O)NCC(=O)N[C@@H](CS)C(=O)N[C@@H](Cc1c[nH]c2ccccc12)C(=O)N[C@H](C(=O)N[C@@H](CCCCN)C(=O)N[C@@H](CO)C(=O)N[C@@H](Cc1ccc(O)cc1)C(=O)N1CCC[C@H]1C(=O)N1CCC[C@H]1C(=O)N[C@@H](CCCCN)C(=O)N1CCC[C@H]1C(=O)N[C@@H](CS)C(=O)N[C@@H](CO)C(=O)NCC(=O)N[C@@H](CCCCN)C(=O)N[C@@H](CCCNC(=N)N)C(=O)O)[C@@H](C)O [PeNi13] (H-KEERGAPKGCWTKSYPPKPCSGKR-OH; N-terminus and C-terminus assumed)
>128/>128/>128 ug/mL: MIC (ug/mL) E. coli ([1]; ATCC 25922) | MIC (ug/mL) S. aureus ([2]; ATCC 29213) | MIC (ug/mL) S. Enteritidis [3, 4]

CC(C)C[C@H](NC(=O)[C@H](CCCCN)NC(=O)[C@H](CCCCN)NC(=O)[C@H](CC(C)C)NC(=O)[C@@H](NC(=O)[C@H](Cc1ccc(O)cc1)NC(=O)[C@@H](NC(=O)CNC(=O)[C@H](CCC(=O)O)NC(=O)[C@H](CC(N)=O)NC(=O)[C@H](Cc1c[nH]c2ccccc12)NC(=O)[C@@H]1CCCN1C(=O)[C@H](CO)NC(=O)[C@H](CO)NC(=O)[C@@H]1CCCN1C(=O)[C@H](CC(C)C)NC(=O)[C@@H](N)Cc1ccccc1)[C@@H](C)O)C(C)C)C(=O)N[C@@H](CCCCN)C(=O)N[C@@H](CO)C(=O)O [PeNi15, FLPSSPWNEGTYVLKKLKS] (H-FLPSSPWNEGTYVLKKLKS-OH; N-terminus and C-terminus assumed)
>128/>128/>128 ug/mL: MIC (ug/mL) E. coli ([1]; ATCC 25922) | MIC (ug/mL) S. aureus ([2]; ATCC 29213) | MIC (ug/mL) S. Enteritidis [3, 4]

CC[C@H](C)[C@H](NC(=O)[C@H](CCCNC(=N)N)NC(=O)[C@@H](NC(=O)[C@@H]1CCCN1C(=O)[C@H](CCCNC(=N)N)NC(=O)[C@@H](NC(=O)[C@@H]1CCCN1C(=O)[C@H](CCC(N)=O)NC(=O)[C@H](CC(C)C)NC(=O)CNC(=O)[C@@H]1CCCN1C(=O)[C@@H]1CCCN1C(=O)[C@@H](NC(=O)[C@H](CCCCN)NC(=O)[C@H](Cc1c[nH]c2ccccc12)NC(=O)[C@H](C)NC(=O)[C@@H](NC(=O)[C@H](C)N)[C@@H](C)O)C(C)C)[C@@H](C)CC)[C@@H](C)CC)C(=O)N[C@@H](CCCNC(=N)N)C(=O)N1CCC[C@H]1C(=O)N[C@@H](CC(C)C)C(=O)N[C@@H](CS)C(=O)NCC(=O)N[C@@H](CC(N)=O)C(=O)N[C@@H](CC(=O)O)C(=O)N[C@@H](CCCCN)C(=O)N[C@@H](CO)C(=O)O [PeNi16] (H-ATAWKVPPGLQPIRPIRIRPLCGNDKS-OH; N-terminus and C-terminus assumed)
>128/>128/>128 ug/mL: MIC (ug/mL) E. coli ([1]; ATCC 25922) | MIC (ug/mL) S. aureus ([2]; ATCC 29213) | MIC (ug/mL) S. Enteritidis [3, 4]

N=C(N)NCCC[C@H](NC(=O)[C@H](CCCNC(=N)N)NC(=O)[C@H](CO)NC(=O)[C@H](CCCNC(=N)N)NC(=O)[C@H](Cc1c[nH]cn1)NC(=O)[C@H](CO)NC(=O)[C@H](Cc1c[nH]c2ccccc12)NC(=O)[C@H](CCCNC(=N)N)NC(=O)[C@@H]1CCCN1C(=O)[C@@H](N)CCCNC(=N)N)C(=O)O [PeNi18, RPRWSHRSRR] (H-RPRWSHRSRR-OH; N-terminus and C-terminus assumed)
>128/>128/>128 ug/mL: MIC (ug/mL) E. coli ([1]; ATCC 25922) | MIC (ug/mL) S. aureus ([2]; ATCC 29213) | MIC (ug/mL) S. Enteritidis [3, 4]

CC[C@H](C)[C@H](NC(=O)[C@H](C)NC(=O)[C@H](Cc1ccccc1)NC(=O)[C@H](C)NC(=O)[C@H](C)NC(=O)[C@@H](N)C(C)C)C(=O)N[C@H](C(=O)NCC(=O)N[C@@H](CS)C(=O)N[C@@H](CC(C)C)C(=O)N[C@@H](CS)C(=O)N[C@@H](CS)C(=O)N[C@@H](CCCNC(=N)N)C(=O)N[C@@H](CCCNC(=N)N)C(=O)N1CCC[C@H]1C(=O)N[C@@H](CCCNC(=N)N)C(=O)N[C@@H](CCCNC(=N)N)C(=O)O)[C@@H](C)CC [PoRo1, VAAFAIIGCLCCRRPRR] (H-VAAFAIIGCLCCRRPRR-OH; N-terminus and C-terminus assumed)
>128/>128/>128 ug/mL: MIC (ug/mL) E. coli ([1]; ATCC 25922) | MIC (ug/mL) S. aureus ([2]; ATCC 29213) | MIC (ug/mL) S. Enteritidis [3, 4]

CC[C@H](C)[C@H](NC(=O)CNC(=O)[C@H](CO)NC(=O)[C@H](CC(C)C)NC(=O)[C@H](CC(C)C)NC(=O)CN)C(=O)N[C@@H](CC(C)C)C(=O)NCC(=O)N[C@@H](C)C(=O)NCC(=O)N[C@@H](CCCCN)C(=O)N[C@@H](CCCCN)C(=O)O [RaOm1, GLLSGILGAGKK] (H-GLLSGILGAGKK-OH; N-terminus and C-terminus assumed)
>128/>128/>128 ug/mL: MIC (ug/mL) E. coli ([1]; Table 14, first value of the cell, three independent experiments, highest concentration tested 128) | MIC (ug/mL) S. aureus ([2]; Table 14, third value of the cell, three independent experiments, highest concentration tested 128) | MIC (ug/mL) S. Enteritidis ([3]; Table 14, second value of the cell, three independent experiments, highest concentration tested 128)

N=C(N)NCCC[C@H](NC(=O)[C@H](CCCNC(=N)N)NC(=O)CNC(=O)[C@H](Cc1ccccc1)NC(=O)[C@@H]1CCCN1C(=O)[C@H](Cc1ccccc1)NC(=O)[C@@H]1CCCN1C(=O)[C@@H](N)Cc1ccccc1)C(=O)O [RaSi2, FPFPFGRR] (H-FPFPFGRR-OH; N-terminus and C-terminus assumed)
>128/>128/>128 ug/mL: MIC (ug/mL) E. coli ([1]; ATCC 25922) | MIC (ug/mL) S. aureus ([2]; ATCC 29213) | MIC (ug/mL) S. Enteritidis [3, 4]

CC(C)C[C@H](NC(=O)CNC(=O)[C@H](Cc1ccccc1)NC(=O)[C@@H]1CCCN1C(=O)[C@@H](N)C(C)C)C(=O)N[C@@H](CCCCN)C(=O)N1CCC[C@H]1C(=O)N[C@@H](CCCNC(=N)N)C(=O)O [TeRu1, VPFGLKPR] (H-VPFGLKPR-OH; N-terminus and C-terminus assumed)
>128/>128/>128 ug/mL: MIC (ug/mL) E. coli ([1]; ATCC 25922) | MIC (ug/mL) S. aureus ([2]; ATCC 29213) | MIC (ug/mL) S. Enteritidis [3, 4]
